Results reported in US20190313942A1, “INGESTIBLE SYSTEM TO MONITOR GASTROINTESTINAL HEALTH IN SITU” (Massachusetts Institute of Technology, priority 2018, published 2019).

Legend:
[1] = tested on: gastrointestinal bleeding; test: Guaiac test on fecal pellets after indomethacin; format: in vivo, C57BL/6J mice; settings: 10 mg/kg oral, following morning
Method: For indomethacin experiments, animals were inoculated with blood sensor bacteria and fecal pellets were collected 6 hours later for luminescence analysis and CFU enumeration. Indomethacin (Sigma) solution was prepared by dissolving the compound in absolute ethanol to a concentration of 20 mg/mL. Immediately prior to mouse gavage, the indomethacin stock solution was diluted to 1.25 mg/mL in PBS and 0.2 mL of dilute indomethacin solution was administered to each animal (10 mg/kg). Preparation of indomethacin solution using this method was essential to ensure reliable and reproducible induction of gastrointestinal bleeding. The following morning, gastrointestinal bleeding was confirmed by performing a guaiac test (Hemoccult, Beckman Coulter) on fecal pellets from each animal. […] Subsequently, mice were again administered blood sensor bacteria and fecal pellets were collected 6 hours later for luminescence analysis and CFU enumeration.

[2] = tested on: PL(HrtO); test: HrtR-mediated repression of PL(HrtO)-luxCDABE luminescence; format: cell-based, E. coli MG1655; settings: co-transformation of PL(HrtO)-luxCDABE with constitutively expressing HrtR construct
Method: For genetic circuit characterization, overnight cultures were diluted 1:100 in fresh LB and incubated with shaking at 37° C. for 2 hours. Cultures were removed from the incubator and 200 μL of culture was transferred to a 96-well plate containing various concentrations of inducer. The plate was returned to a shaking incubator at 37° C. Following 2 hours of incubation, luminescence was read using a BioTek Synergy H1 Hybrid Reader using a […] integration time and a sensitivity of 135. Luminescence values, measured in relative luminescence units (RLUs), were normalized by the optical density of the culture measured at 600 nm. For in vitro kinetic studies, subcultured cells were mixed with inducer in a 96-well plate and immediately placed in the plate reader set at 37° C. without shaking. Luminescence and absorbance was read at 5 minute intervals.

Row | Molecule | guaiac test (gastrointestinal bleeding) [1] | reduction in luminescence [2] [fold]
1 | COc1ccc2c(c1)c(CC(=O)O)c(C)n2C(=O)c1ccc(Cl)cc1 [indomethacin] | guaiac positive | –
2 | HrtR: heme-regulated TetR-family transcriptional repressor from Lactococcus lactis (protein, Heme-responsive transcriptional repressor, heme-regulated TetR-family transcriptional repressor from Lactococcus lactis) MPKSTYFSLSDEKRKRVYDACLLEFQTHSFHEAKIMHIVKALDIPRGSFYQYFEDLKDSYYYILSQETVEIHDLFFNLLKEYPLEVALNKYKYLLLENLVNSPQYNLYKYRFLDWTYELERDWKPKGEVTVPARELDNPISQVLKSVIHNLVYRMFSENWDEQKFIETYDKEIKLLTEGLLNYVTESKK | – | 4.4
